# Read-outs that look alike come from different tables or passages of the source.
# How the values were obtained:
# E. coli CFT073 (UPEC) = assay: MIC, standard microdilution assay, growing UPEC; format: cell-based, Escherichia coli; settings: E. coli; for MIC (μM) CA-MHB +PAβN: CA-MHB with 10 μg/ml efflux pump inhibitor PaβN
# Experimental: (§1) Minimal inhibitory concentrations (MICs) were determined using a standard microdilution assay protocol. CA-MHB medium buffered with 40 mM HEPES (pH 7.4) was used to determine the MICs for UPEC, P. aeruginosa, and S. aureus. […] MICs for UPEC were also determined in LPM buffered with 30 mM MES (pH 5.5). For S. flexneri, MICs were determined in tryptic soy broth (TSB). The assay was performed in triplicates.
# P. aeruginosa DSM1117 = assay: MIC, standard microdilution assay, growing P. aeruginosa; format: cell-based, Pseudomonas aeruginosa; settings: Pseudomonas aeruginosa, DSM1117; P. aeruginosa; CA-MHB pH 7.4; read-out: MIC (μM) CA-MHB
# Experimental: as §1
# [1] = tested on: intracellular S. flexneri 5a M90T in TC7 cells; assay: microbe, parasite or virus in culture; format: cell-based, Shigella flexneri; settings: for IC50: Shigella flexneri, TC7, 14 h; for Fluorescence intensity (RFU), Mean, 0.0625 x MIC / Fluorescence intensity (RFU), Mean, 0.125 x MIC / Fluorescence intensity (RFU), Mean, 0.25 x MIC / Fluorescence intensity (RFU), Mean, 0.5 x MIC / Fluorescence intensity (RFU), Mean, 2 x MIC / Fluorescence intensity (RFU), Mean, MIC: TC7 cells infected with GFP-expressing S. flexneri, 14 h treatment
# Excerpt: Nonproliferating bacterial pathogens frequently inhabit intracellular environments, but establishing relevant infection models for high-throughput testing is challenging. Therefore, we firstly tested ability of the hit compounds to cross the eukaryotic cytoplasmic membrane barrier and inhibit growth of S. flexneri within the cytoplasm of the TC7 human colon adenocarcinoma cell line[59]. To this end, we developed a new, fluorescence-based method that enables real-time monitoring of growth of intracellular Shigella. We used S. flexneri 5a M90T strain producing the AfaE adhesin that enhances bacterial adhesion to epithelial cells and allows synchronization of invasion. The strain was further modified to constitutively express super-folder GFP (sfGFP), which enables monitoring bacterial growth by fluorescence measurement. The epithelial cells were grown to confluence and infected with bacteria at an MOI (multiplicity of infection) of 50. […] Following bacterial adhesion and invasion, the cells were incubated with varying concentrations of the hit compounds and intracellular bacterial growth was tracked by measuring green fluorescence.
# The cells were split using trypsin, seeded in 96-well plates for infection, and grown to confluence, corresponding to approximately 40,000 cells per well.
# A single colony of S. flexneri was inoculated into TSB supplemented with 50 μg/ml spectinomycin and incubated overnight at 37°C with agitation. The overnight culture was diluted 1:200 in fresh TSB, and the bacteria were grown at 37 °C until the OD600 reached 0.3–0.4, corresponding to approximately 2 × 10^7 CFU/ml. Bacteria were pelleted by centrifugation, washed twice with sterile PBS, and resuspended in infection solution (serum-free DMEM supplemented with 20 mM HEPES, pH 7.4). Just prior to infection, the medium was withdrawn, and the cells were washed twice with sterile PBS. The bacterial inoculum (MOI 50, 2 × 10^7 CFU/ml) was added to all wells except the no-infection control. The plates were incubated at room temperature for 15 min to allow bacterial adhesion, followed by a 1 h incubation at 37 °C with 5% CO2 to facilitate bacterial invasion.
# Twofold serial dilutions of the drugs were prepared in infection solution containing 50 μg/ml gentamicin in a 96-well plate. After the invasion period, the bacterial inoculum was removed, and the serial dilutions of the drugs were added to the wells, except for the no-drug control. […] […] The experiments were performed in triplicates on separate days.
# (§2) Statistical significance of the drug effects was assessed using a one-way ANOVA followed by Dunnett’s test, comparing each treatment to the drug-free control. Statistical significance of the differences in chemical characteristics between the hit compounds and the Prestwick library was assessed using a Mann–Whitney test. Statistical significance was set at P ≤ 0.05. A five-parameter logistic equation was used for asymmetric sigmoidal curve fitting and for EC50 and IC50 determination. The Venn diagram in Fig. 1F was prepared using BioVenn web application. Characteristics of the chemical and physical properties of Prestwick library compounds were obtained from Supplementary Table S1 from reference. Characteristics of the hit compounds not included in the Prestwick library were retrieved from the PubChem database.
# S. flexneri 5a M90T = assay: MIC in tryptic soy broth, S. flexneri; format: cell-based, Shigella flexneri; settings: Shigella flexneri, 5AM90T, read-out: MIC (μM) TSB
# Experimental: as §1
# S. aureus DSM2569 = assay: MIC, standard microdilution assay, growing S. aureus; format: cell-based, Staphylococcus aureus; settings: Staphylococcus aureus, DSM2569; S. aureus; CA-MHB pH 7.4; read-out: MIC (μM) CA-MHB
# Experimental: as §1
# non-growing UPEC CFT073 = assay: Dilution-regrowth assay (screen, hit validation, dose-response) on stationary-phase UPEC; format: cell-based, Escherichia coli; settings: at 0.5 µM
# Experimental: The cultures were incubated for 24 h in non-baffled Erlenmeyer flasks at 37 °C with shaking at 200 rpm.
# The high-throughput screening (HTS) procedure was based on the protocol by Hazan and colleagues[15] and conducted at the Chemical Biology Consortium Sweden (CBCS) screening facility. […] Each plate included eight wells with 200 nl of 10 mM gatifloxacin, finafloxacin, and kanamycin solutions, along with 8-wells containing 200 nl of DMSO as controls. After 24 h incubation,100 μl of the culture was dispensed into each well of the 384-well plates for screening at a final concentration of 20 μM. The plates were sealed with parafilm and incubated at 37 °C for 24 h in closed humidified boxes, with wet paper towels added to prevent evaporation. […] The plates were incubated at 37 °C for 6 h in humidified boxes, then OD600 was measured using a microplate reader.
# For hit validation, bacteria were cultivated, and the dilution-regrowth assay was conducted following the same protocol used in the primary screen. Hit compounds were dispensed into 384-well plates using the Echo® (Labcyte) system, with 200, 100, or 50 nl of a 10 mM solution in DMSO added per well, yielding final screening concentrations of 20, 10, and 5 μM, respectively. OD600 values of regrowing samples were normalized to the mean OD600 of the drug-free control. The testing was conducted in two replicates.
# For UPEC, dose–response analysis was conducted at the CBCS screening facility. Bacteria were cultivated, and the dilution-regrowth assay was performed according to the HTS protocol. Compounds were dispensed into 384-well plates using the Echo® (Labcyte) system, and regrowth was assessed by measuring OD600 after 6 h of incubation at 37 °C in humidified boxes. Three biological replicates were performed.
# as §2
# [2] = tested on: non-growing S. aureus DSM2569; assay: Dose-dependent killing analysis (CFU spot-plating) of stationary-phase S. aureus;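 further: drug concentration in µM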; format: cell-based, Staphylococcus aureus; settings: S. aureus, vs 9,097 before treatment
# Experimental: To determine the spectrum of activity of the compounds that were effective against non-growing UPEC, we further assessed their efficacy against the well-characterized Gram-negative and Gram-positive reference strains P. aeruginosa DSM1117 and S. aureus DSM2569, respectively. The cultures were grown and treated for 24 h in 1:4 CA-MHB (pH 7.4). […].
# For survival analysis, bacteria were cultivated as described for the dose–response dilution-regrowth assay. Assays with UPEC were conducted at the CBCS screening facility using 96-well plates with a 200 μl sample volume, and compounds were dispensed using the Echo® (Labcyte) system. P. aeruginosa and S. aureus samples were treated according to the protocol used for the dilution-regrowth experiments. Treated samples were serially diluted 10-fold in PBS, and 10 μl drops were spot-plated onto rectangular LB agar plates using either a Beckman NXP robot (for UPEC) or an Integra VIAFLO96 electronic pipette (for P. aeruginosa and S. aureus). The LB agar plates were incubated overnight at 37 °C and scanned. Colonies were counted at the spots of the lowest dilution where individual colonies could be accurately distinguished. Each colony was manually marked on a separate image layer using the GNU Image Manipulation Program, and counted using NIST’s Integrated Colony Enumerator (NICE 1.4) software. The experiments were performed in three biological replicates.
# [3] = Escherichia coli, pH 7.4, 1:4 diluted CA-MHB, read-out: MIC (μM) 1:4 CA-MHB
# [4] = Escherichia coli, pH 7.4, CA-MHB, read-out: MIC (μM) CA-MHB
Compound,MIC (μM) CA-MHB +PAβN (E. coli CFT073 (UPEC); pH 7.4),MIC (E. coli CFT073 (UPEC); [3]),MIC (E. coli CFT073 (UPEC); [4]),MIC (P. aeruginosa DSM1117),IC50 [1],"Fluorescence intensity (RFU), Mean, 0.0625 x MIC [1]","Fluorescence intensity (RFU), Mean, 0.125 x MIC [1]","Fluorescence intensity (RFU), Mean, 0.25 x MIC [1]","Fluorescence intensity (RFU), Mean, 0.5 x MIC [1]","Fluorescence intensity (RFU), Mean, 2 x MIC [1]","Fluorescence intensity (RFU), Mean, MIC [1]",MIC (S. flexneri 5a M90T),MIC (S. aureus DSM2569),also measured
CCC(=O)O[C@@H]1CC(=O)O[C@H](C)C/C=C/C=C/[C@H](O)[C@H](C)C[C@H](CC=O)[C@H](O[C@@H]2O[C@H](C)[C@@H](O[C@H]3C[C@@](C)(O)[C@@H](OC(=O)CC)[C@H](C)O3)[C@H](N(C)C)[C@H]2O)[C@H]1OC [Midecamycin],160 µM,160 µM,> 160 µM,> 160 µM,91 µM,9401.53 RFU,9631.81 RFU,8761.75 RFU,6972.36 RFU,1708.61 RFU,3717.14 RFU,128 µM,2 µM,"MIC (E. coli CFT073 (UPEC); pH 7.4, CA-MHB, read-out: MIC (μM) CA-MHB): >160 µM; MIC (E. coli CFT073 (UPEC); Escherichia coli, LPM pH 5.5, read-out: MIC): 160 µM; UPEC regrowth delay (non-growing UPEC CFT073): effectively delays UPEC regrowth"
CO[C@@H]1[C@@H](O[C@@H]2O[C@H](C)[C@@H](O[C@H]3C[C@@](C)(O)[C@@H](OC(=O)CC(C)C)[C@H](C)O3)[C@H](N(C)C)[C@H]2O)[C@@H](CC=O)C[C@@H](C)[C@@H](O)/C=C/C=C/C[C@@H](C)OC(=O)C[C@H]1OC(C)=O [Josamycin],40 µM,80 µM,80 µM,> 160 µM,34.3 µM,8835.42 RFU,7817.11 RFU,5830.67 RFU,2645.69 RFU,1478.33 RFU,1710.25 RFU,128 µM,2 µM,average Δlog10(CFU/ml) (killing) ([2]; drug conc. 0.1): 0.030 log10(CFU/ml); average Δlog10(CFU/ml) (killing) ([2]; drug conc. 0.5): 0.110 log10(CFU/ml); average Δlog10(CFU/ml) (killing) ([2]; drug conc. 2.5): 0.195 log10(CFU/ml); average Δlog10(CFU/ml) (killing) ([2]; drug conc. 10): 0.084 log10(CFU/ml); MIC:IC50 ratio ([1]; S. flexneri MIC in TSB versus intracellular IC50): > 2

# Source: publication PMC11992225, “Antibacterial compounds against non-growing and intracellular bacteria” (npj Antimicrobials and Resistance, 2025)
